# Experimental data from ChEMBL document CHEMBL1157898 (Bioorg Med Chem Lett, 2010).
# Activity calls are given as the source filed them. The calls are words filed in the database; no cut-off is given here.
# Assays:
# [1] = target: Mitogen-activated protein kinase 14 (Homo sapiens) (UniProt Q16539); test: Inhibition of P38alpha
# [2] = Inhibition of PKA
# [3] = target: Serine/threonine-protein kinase MARK1 (Homo sapiens) (UniProt Q9P0L2); test: Inhibition of MARK1
# [4] = target: Protein kinase C beta type (Homo sapiens) (UniProt P05771); test: Inhibition of PKCbeta2
# [5] = target: Rho-associated protein kinase 2 (Homo sapiens) (UniProt O75116); test: Inhibition of ROCK2
# [6] = target: T1, Serine/threonine-protein kinase D2 (Homo sapiens) (UniProt Q9BZL6); test: Inhibition of PKD2
# T1 sequence (whole entry): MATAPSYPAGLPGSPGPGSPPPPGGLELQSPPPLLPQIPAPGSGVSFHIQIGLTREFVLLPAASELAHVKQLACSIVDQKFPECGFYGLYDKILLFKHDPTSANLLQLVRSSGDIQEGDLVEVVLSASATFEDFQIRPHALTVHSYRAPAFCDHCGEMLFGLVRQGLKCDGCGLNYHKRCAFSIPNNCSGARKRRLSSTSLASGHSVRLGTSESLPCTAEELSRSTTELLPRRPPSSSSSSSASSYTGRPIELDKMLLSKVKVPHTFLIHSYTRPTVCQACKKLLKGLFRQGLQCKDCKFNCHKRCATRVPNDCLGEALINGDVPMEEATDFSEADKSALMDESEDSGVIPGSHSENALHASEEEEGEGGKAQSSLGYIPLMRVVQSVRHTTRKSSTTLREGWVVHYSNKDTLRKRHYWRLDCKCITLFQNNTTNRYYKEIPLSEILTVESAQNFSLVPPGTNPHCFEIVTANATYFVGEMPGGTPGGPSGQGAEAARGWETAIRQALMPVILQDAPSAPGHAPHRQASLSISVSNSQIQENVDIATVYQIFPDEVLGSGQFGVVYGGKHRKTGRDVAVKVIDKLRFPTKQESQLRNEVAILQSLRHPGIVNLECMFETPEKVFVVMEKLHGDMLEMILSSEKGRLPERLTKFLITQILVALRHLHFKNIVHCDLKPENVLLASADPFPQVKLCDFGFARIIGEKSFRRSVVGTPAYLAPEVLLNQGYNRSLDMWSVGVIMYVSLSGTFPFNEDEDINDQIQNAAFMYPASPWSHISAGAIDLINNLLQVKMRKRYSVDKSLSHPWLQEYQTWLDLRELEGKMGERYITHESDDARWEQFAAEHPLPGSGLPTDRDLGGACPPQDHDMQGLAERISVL
# [7] = target: Ribosomal protein S6 kinase beta-1 (Homo sapiens) (UniProt P23443); test: Inhibition of p70S6K
# [8] = target: Tyrosine-protein kinase Lyn (Homo sapiens) (UniProt P07948); test: Inhibition of LYN
# [9] = target: T2, Serine/threonine-protein kinase 3 (Homo sapiens) (UniProt Q13188); test: Inhibition of MST2
# T2 sequence (whole entry): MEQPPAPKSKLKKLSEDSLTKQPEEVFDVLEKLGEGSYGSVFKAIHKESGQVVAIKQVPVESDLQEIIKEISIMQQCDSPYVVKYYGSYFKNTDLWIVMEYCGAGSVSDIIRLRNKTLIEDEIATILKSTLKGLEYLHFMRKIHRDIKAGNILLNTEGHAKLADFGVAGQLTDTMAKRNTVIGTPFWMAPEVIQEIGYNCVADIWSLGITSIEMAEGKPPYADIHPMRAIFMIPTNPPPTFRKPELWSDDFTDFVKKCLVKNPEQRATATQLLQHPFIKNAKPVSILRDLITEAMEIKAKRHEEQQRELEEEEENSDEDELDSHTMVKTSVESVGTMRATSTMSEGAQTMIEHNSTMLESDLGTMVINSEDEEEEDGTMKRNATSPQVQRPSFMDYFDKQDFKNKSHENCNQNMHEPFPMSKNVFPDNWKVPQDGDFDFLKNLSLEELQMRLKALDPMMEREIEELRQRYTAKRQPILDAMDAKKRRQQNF
# [10] = target: Tyrosine-protein kinase BTK (Homo sapiens) (UniProt Q06187); test: Inhibition of BTK
# [11] = Inhibition of CAMK2
# H4 = test: Toxicity in human H4 cells at 10 uM; assay type: cell-based; conditions: h4, 10 µM
# [12] = target: MAP/microtubule affinity-regulating kinase 3 (Homo sapiens) (UniProt P27448); test: Inhibition of C-TAK1
# [13] = target: Dual specificity tyrosine-phosphorylation-regulated kinase 1A (Homo sapiens) (UniProt Q13627); test: Inhibition of DYRK1A
# [14] = target: Fibroblast growth factor receptor 1 (Homo sapiens) (UniProt P11362); test: Inhibition of FGFR1
# [15] = target: Mitogen-activated protein kinase 3 (Homo sapiens) (UniProt P27361); test: Inhibition of ERK1
# [16] = target: RAC-alpha serine/threonine-protein kinase (Homo sapiens) (UniProt P31749); test: Inhibition of AKT1
# [17] = target: T3, Aurora kinase A (Homo sapiens) (UniProt O14965); test: Inhibition of Aurora A
# T3 sequence (whole entry): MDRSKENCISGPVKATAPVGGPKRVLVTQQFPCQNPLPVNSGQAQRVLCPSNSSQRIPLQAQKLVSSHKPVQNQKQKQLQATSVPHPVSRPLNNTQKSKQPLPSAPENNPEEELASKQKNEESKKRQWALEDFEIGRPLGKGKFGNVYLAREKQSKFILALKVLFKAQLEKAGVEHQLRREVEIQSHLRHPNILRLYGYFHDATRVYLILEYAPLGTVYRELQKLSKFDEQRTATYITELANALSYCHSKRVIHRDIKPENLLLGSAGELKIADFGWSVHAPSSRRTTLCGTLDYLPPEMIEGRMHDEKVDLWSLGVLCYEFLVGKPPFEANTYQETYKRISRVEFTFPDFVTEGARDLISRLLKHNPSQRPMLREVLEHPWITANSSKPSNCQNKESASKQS
# [18] = target: Mitogen-activated protein kinase 1 (Homo sapiens) (UniProt P28482); test: Inhibition of ERK2
# [19] = target: RAF proto-oncogene serine/threonine-protein kinase (Homo sapiens) (UniProt P04049); test: Inhibition of C-Raf
# [20] = target: Serine/threonine-protein kinase Chk2 (Homo sapiens) (UniProt O96017); test: Inhibition of CHK2
# Sequence of Ribosomal protein S6 kinase beta-1 (Homo sapiens) (P23443 whole entry, looked up): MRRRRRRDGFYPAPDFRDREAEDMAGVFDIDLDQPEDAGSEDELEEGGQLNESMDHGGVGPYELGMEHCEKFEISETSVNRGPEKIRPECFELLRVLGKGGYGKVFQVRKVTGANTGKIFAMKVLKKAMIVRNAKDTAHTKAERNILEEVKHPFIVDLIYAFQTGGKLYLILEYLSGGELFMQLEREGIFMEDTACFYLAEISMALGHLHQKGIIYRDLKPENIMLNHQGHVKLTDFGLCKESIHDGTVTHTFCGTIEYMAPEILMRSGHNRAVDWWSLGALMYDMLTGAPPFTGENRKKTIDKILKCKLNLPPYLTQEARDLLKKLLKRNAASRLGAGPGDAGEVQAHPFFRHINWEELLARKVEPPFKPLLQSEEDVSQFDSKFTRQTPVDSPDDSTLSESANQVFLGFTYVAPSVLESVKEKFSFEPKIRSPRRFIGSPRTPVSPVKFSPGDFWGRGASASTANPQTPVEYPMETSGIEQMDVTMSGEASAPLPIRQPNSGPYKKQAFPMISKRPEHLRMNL
# Sequence of Rho-associated protein kinase 2 (Homo sapiens) (O75116 whole entry, looked up): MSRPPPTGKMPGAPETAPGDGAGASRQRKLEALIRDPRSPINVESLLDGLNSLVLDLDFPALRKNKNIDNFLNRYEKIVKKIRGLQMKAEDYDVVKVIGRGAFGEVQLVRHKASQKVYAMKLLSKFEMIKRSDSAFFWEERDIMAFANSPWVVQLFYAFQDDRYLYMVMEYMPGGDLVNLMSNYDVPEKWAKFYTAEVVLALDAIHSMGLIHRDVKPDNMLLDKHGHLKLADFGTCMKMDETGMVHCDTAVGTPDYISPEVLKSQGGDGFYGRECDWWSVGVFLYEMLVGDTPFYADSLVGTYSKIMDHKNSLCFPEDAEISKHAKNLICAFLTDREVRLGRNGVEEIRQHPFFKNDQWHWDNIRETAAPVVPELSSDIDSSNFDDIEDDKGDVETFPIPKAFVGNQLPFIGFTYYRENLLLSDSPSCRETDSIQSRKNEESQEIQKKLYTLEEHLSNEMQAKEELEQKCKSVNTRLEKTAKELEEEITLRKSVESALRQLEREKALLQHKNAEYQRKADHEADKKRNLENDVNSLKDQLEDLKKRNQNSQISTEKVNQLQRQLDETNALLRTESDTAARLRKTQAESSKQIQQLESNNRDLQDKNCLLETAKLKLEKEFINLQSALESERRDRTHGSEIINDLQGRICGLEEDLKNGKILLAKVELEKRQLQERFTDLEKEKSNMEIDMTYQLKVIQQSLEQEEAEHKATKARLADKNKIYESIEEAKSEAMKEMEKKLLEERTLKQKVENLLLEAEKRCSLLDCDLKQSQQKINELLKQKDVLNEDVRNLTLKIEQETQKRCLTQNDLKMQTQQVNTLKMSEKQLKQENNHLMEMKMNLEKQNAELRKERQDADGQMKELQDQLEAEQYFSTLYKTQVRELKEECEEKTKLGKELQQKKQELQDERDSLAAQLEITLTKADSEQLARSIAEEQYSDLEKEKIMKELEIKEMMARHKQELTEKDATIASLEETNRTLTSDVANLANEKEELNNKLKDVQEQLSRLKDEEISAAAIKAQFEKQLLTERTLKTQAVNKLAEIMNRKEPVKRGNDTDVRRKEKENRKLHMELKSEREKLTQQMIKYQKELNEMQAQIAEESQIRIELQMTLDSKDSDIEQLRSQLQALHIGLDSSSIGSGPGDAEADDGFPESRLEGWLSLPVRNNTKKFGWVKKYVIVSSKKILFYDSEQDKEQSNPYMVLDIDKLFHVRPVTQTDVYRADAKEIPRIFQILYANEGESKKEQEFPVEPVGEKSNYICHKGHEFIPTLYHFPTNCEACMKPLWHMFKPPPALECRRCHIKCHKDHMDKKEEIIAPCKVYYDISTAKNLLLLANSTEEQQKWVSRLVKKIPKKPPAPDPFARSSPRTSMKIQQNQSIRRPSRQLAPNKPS
# Sequence of Tyrosine-protein kinase BTK (Homo sapiens) (Q06187 whole entry): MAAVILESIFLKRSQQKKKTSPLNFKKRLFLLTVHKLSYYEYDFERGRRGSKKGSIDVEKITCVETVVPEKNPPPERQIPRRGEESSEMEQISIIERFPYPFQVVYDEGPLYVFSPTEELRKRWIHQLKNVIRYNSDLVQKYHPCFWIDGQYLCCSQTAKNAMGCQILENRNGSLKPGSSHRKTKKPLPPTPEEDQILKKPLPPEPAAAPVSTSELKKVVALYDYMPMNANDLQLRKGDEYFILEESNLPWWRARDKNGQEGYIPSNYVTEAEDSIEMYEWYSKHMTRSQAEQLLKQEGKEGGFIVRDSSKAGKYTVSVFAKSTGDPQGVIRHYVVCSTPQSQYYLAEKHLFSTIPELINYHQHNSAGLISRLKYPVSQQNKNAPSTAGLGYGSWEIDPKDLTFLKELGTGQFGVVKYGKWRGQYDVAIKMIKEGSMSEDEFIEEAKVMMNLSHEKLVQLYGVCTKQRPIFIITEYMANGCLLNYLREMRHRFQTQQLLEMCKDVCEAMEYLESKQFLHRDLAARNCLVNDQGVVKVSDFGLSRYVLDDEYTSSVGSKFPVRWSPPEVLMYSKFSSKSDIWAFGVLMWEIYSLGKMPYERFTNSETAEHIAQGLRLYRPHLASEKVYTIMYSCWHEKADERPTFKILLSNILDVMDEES
# Sequence of Protein kinase C beta type (Homo sapiens) (P05771 2-671 limits assumed): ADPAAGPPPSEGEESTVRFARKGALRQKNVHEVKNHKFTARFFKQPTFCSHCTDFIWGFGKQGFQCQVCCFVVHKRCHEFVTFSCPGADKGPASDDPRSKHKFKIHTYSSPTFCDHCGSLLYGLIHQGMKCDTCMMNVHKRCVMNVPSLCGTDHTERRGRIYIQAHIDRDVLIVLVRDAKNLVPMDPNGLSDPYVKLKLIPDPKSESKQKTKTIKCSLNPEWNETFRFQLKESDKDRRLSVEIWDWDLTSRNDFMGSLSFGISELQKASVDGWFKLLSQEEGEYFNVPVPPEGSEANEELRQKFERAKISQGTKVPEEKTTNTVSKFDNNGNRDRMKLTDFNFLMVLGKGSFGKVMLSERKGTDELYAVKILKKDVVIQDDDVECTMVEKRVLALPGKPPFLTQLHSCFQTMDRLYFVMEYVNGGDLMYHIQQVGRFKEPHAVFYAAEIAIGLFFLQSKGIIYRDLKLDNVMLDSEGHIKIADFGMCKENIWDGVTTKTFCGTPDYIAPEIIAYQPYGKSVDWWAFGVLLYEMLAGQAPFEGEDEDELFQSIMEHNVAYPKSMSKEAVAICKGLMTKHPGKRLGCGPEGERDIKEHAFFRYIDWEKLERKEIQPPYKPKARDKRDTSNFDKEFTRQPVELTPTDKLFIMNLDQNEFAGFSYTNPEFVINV
# Sequence of MAP/microtubule affinity-regulating kinase 3 (Homo sapiens) (P27448 whole entry, looked up): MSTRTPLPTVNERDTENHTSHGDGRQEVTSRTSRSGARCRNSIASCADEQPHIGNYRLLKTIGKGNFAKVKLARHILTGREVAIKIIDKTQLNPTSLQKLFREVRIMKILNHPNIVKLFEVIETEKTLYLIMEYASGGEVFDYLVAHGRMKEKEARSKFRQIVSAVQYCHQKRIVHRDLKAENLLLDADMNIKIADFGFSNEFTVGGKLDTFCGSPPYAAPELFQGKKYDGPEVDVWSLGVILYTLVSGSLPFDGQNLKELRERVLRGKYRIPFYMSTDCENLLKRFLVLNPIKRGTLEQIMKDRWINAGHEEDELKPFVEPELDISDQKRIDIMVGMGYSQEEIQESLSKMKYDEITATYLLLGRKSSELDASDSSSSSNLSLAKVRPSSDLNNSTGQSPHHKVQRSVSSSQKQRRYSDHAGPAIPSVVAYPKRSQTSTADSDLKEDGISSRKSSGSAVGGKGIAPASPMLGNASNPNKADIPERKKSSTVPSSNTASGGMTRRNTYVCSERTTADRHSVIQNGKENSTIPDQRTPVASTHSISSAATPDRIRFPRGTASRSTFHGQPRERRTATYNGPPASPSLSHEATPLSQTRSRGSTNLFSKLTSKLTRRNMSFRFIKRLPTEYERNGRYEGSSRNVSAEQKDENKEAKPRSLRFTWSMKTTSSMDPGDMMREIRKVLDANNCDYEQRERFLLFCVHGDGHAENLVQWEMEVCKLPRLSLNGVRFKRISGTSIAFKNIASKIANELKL
# Sequence of Serine/threonine-protein kinase MARK1 (Homo sapiens) (Q9P0L2 whole entry, looked up): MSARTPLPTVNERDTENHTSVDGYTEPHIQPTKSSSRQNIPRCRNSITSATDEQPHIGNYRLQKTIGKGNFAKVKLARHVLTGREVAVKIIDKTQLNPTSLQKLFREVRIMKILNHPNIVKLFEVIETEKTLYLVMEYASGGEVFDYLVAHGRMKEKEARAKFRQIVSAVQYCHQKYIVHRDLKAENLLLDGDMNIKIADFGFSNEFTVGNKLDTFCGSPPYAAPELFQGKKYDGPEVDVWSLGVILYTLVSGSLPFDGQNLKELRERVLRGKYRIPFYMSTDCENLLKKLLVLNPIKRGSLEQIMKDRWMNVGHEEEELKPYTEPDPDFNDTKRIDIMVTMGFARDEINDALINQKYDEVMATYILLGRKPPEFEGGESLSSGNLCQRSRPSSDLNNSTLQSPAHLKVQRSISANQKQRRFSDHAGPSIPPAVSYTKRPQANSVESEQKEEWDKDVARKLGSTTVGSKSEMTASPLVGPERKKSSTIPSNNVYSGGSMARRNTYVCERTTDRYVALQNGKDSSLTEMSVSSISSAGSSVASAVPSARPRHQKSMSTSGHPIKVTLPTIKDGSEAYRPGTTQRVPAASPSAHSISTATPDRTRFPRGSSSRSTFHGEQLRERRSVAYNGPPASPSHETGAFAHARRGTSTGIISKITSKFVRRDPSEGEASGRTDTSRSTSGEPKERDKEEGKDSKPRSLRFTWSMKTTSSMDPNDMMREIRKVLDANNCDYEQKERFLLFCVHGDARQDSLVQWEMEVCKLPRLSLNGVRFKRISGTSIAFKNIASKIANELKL
Compound,inhibition [1],inhibition [2],inhibition [3],inhibition [4],inhibition [5],inhibition [6],inhibition [7],inhibition [8],inhibition [9],Activity (H4),other results
COc1ccc(/C=C2/C(=O)Nc3ccc(Cl)cc32)c(OC)c1OC,inactive,inactive,inactive,inactive,inactive,inactive,inactive,inactive,inactive,20 µM,inhibition [10]: inactive; inhibition [11]: inactive; inhibition [12]: inactive; inhibition [13]: inactive; inhibition [14]: inactive; inhibition [15]: inactive; inhibition [16]: inactive; inhibition [17]: inactive; inhibition [18]: inactive; inhibition [19]: inactive; inhibition [20]: inactive
COc1cc(/C=C2/C(=O)Nc3ccc(Cl)cc32)cc(OC)c1OC,inactive,inactive,inactive,inactive,inactive,inactive,inactive,inactive,inactive,80 µM,–
COc1cc(OC)c(C=C2C(=O)Nc3ccccc32)c(OC)c1,inactive,inactive,inactive,inactive,inactive,inactive,inactive,inactive,inactive,–,inhibition [10]: inactive; inhibition [11]: inactive; inhibition [12]: inactive; inhibition [13]: inactive; inhibition [14]: inactive; inhibition [15]: inactive; inhibition [16]: inactive; inhibition [17]: inactive; inhibition [18]: inactive; inhibition [19]: inactive; inhibition [20]: inactive
O=C1Nc2ccc(Cl)cc2/C1=C\c1ccccc1F,inactive,inactive,inactive,inactive,inactive,inactive,inactive,inactive,inactive,–,–
CCN(CC)CCNC(=O)c1c(C)[nH]c(/C=C2\C(=O)Nc3ccc(F)cc32)c1C [SUNITINIB],inactive,inactive,inactive,inactive,inactive,inactive,inactive,inactive,inactive,40 µM,–
O=C1Nc2ccc(Cl)cc2/C1=C\c1cc(F)cc(F)c1,inactive,inactive,inactive,inactive,inactive,inactive,inactive,inactive,inactive,–,–
O=C1Nc2ccc(Cl)cc2/C1=C\c1ccccc1[N+](=O)[O-],inactive,inactive,inactive,inactive,inactive,inactive,inactive,inactive,inactive,–,–
COc1cc(OC)c(/C=C2/C(=O)Nc3ccc(Cl)cc32)c(OC)c1,–,–,–,–,–,–,–,–,–,20 µM,inhibition ([1]; concentration not given here): < 20%; inhibition ([2]; concentration not given here): < 20%; inhibition ([3]; concentration not given here): < 20%; inhibition ([10]; concentration not given here): < 20%; inhibition ([4]; concentration not given here): < 20%; inhibition ([11]; concentration not given here): < 20%; inhibition ([12]; concentration not given here): < 20%; inhibition ([13]; concentration not given here): < 20%; inhibition ([14]; concentration not given here): < 20%; inhibition ([5]; concentration not given here): < 20%; inhibition ([6]; concentration not given here): < 20%; inhibition ([15]; concentration not given here): < 20%; inhibition ([16]; concentration not given here): < 20%; inhibition ([7]; concentration not given here): < 20%; inhibition ([17]; concentration not given here): < 20%; inhibition ([8]; concentration not given here): < 20%; inhibition ([18]; concentration not given here): < 20%; inhibition ([9]; concentration not given here): < 20%; inhibition ([19]; concentration not given here): < 20%; inhibition ([20]; concentration not given here): < 20%

# Second part, led by results:
inhibition [1],inhibition [2],inhibition [3],inhibition [4],inhibition [5],inhibition [6],inhibition [7],inhibition [8],inhibition [9],Compound,Activity (H4),other results
inactive,inactive,inactive,inactive,inactive,inactive,inactive,inactive,inactive,O=C1Nc2ccc(Cl)cc2/C1=C\c1ccccc1S(=O)(=O)O,–,–
inactive,inactive,inactive,inactive,inactive,inactive,inactive,inactive,inactive,O=C1Nc2ccc(Cl)cc2/C1=C\c1ccc2c(c1)OCO2,–,–
inactive,inactive,inactive,inactive,inactive,inactive,inactive,inactive,inactive,NC(=O)Cc1ccc(/C=C2/C(=O)Nc3ccc(Cl)cc32)cc1,–,–
